US12215085B2 (priority 2019, dated 2025)

System: rats with beta-amyloid induced senile dementia
Test: Water maze test, beta-amyloid induced senile dementia rats
Assay type: in vivo, rat
Conditions: succinate; for orientation angle for reaching the platform / speed for reaching the platform / swimming path length for reaching the platform / time for reaching the platform: x ± s
[1] = Day 1, 0.7 mg/kg intragastric, 0.7 mg/kg
[2] = Day 1, 1.4 mg/kg intragastric, 1.4 mg/kg
[3] = Day 1, 2.8 mg/kg intragastric, 2.8 mg/kg
[4] = Day 2, 0.7 mg/kg intragastric, 0.7 mg/kg
[5] = Day 2, 1.4 mg/kg intragastric, 1.4 mg/kg
[6] = Day 2, 2.8 mg/kg intragastric, 2.8 mg/kg
[7] = Day 3, 0.7 mg/kg intragastric, 0.7 mg/kg
[8] = Day 3, 1.4 mg/kg intragastric, 1.4 mg/kg
[9] = Day 3, 2.8 mg/kg intragastric, 2.8 mg/kg
[10] = Day 4, 0.7 mg/kg intragastric, 0.7 mg/kg
[11] = Day 4, 1.4 mg/kg intragastric, 1.4 mg/kg
[12] = Day 4, 2.8 mg/kg intragastric, 2.8 mg/kg
[13] = Day 5, 0.7 mg/kg intragastric, 0.7 mg/kg
[14] = Day 5, 1.4 mg/kg intragastric, 1.4 mg/kg
[15] = Day 5, 2.8 mg/kg intragastric, 2.8 mg/kg
[16] = Day 6, 0.7 mg/kg intragastric, 0.7 mg/kg
[17] = Day 6, 1.4 mg/kg intragastric, 1.4 mg/kg
[18] = Day 6, 2.8 mg/kg intragastric, 2.8 mg/kg

Nc1c2c(nc3c1CCCC3)CCCC2.O=C(O)CCC(=O)O [Crystal Form K, 9-amino-1,2,3,4,5,6,7,8-octahydroacridine succinate]
adopted strategy for reaching the platform (the peripheral type and the random type %) [1]: 95.24% | orientation angle for reaching the platform [1]: 72.32 ± 21.32 ° | speed for reaching the platform [1]: 18.56 ± 4.91 cm/s | swimming path length for reaching the platform [1]: 1196.20 ± 260.35 cm | time for reaching the platform [1]: 70.00 ± 14.73 s | adopted strategy for reaching the platform (the peripheral type and the random type %) [2]: 94.82% | orientation angle for reaching the platform [2]: 71.28 ± 13.47 ° | speed for reaching the platform [2]: 18.24 ± 6.88 cm/s | swimming path length for reaching the platform [2]: 1151.50 ± 313.31 cm | time for reaching the platform [2]: 70.50 ± 14.60 s | adopted strategy for reaching the platform (the peripheral type and the random type %) [3]: 93.17% | orientation angle for reaching the platform [3]: 68.37 ± 20.14 ° | speed for reaching the platform [3]: 19.42 ± 5.93 cm/s | swimming path length for reaching the platform [3]: 1188.50 ± 273.99 cm | time for reaching the platform [3]: 66.90 ± 11.45 s | adopted strategy for reaching the platform (the peripheral type and the random type %) [4]: 79.34% | orientation angle for reaching the platform [4]: 62.15 ± 19.37 ° | speed for reaching the platform [4]: 19.44 ± 9.85 cm/s | swimming path length for reaching the platform [4]: 796.10 ± 179.65 cm | time for reaching the platform [4]: 48.50 ± 15.28 s | adopted strategy for reaching the platform (the peripheral type and the random type %) [5]: 78.13% | orientation angle for reaching the platform [5]: 63.27 ± 10.38 ° | speed for reaching the platform [5]: 20.42 ± 7.24 cm/s | swimming path length for reaching the platform [5]: 772.80 ± 229.71 cm | time for reaching the platform [5]: 51.60 ± 17.26 s | adopted strategy for reaching the platform (the peripheral type and the random type %) [6]: 80.67% | orientation angle for reaching the platform [6]: 66.21 ± 18.35 ° | speed for reaching the platform [6]: 20.89 ± 6.68 cm/s | swimming path length for reaching the platform [6]: 770.70 ± 248.67 cm | time for reaching the platform [6]: 50.40 ± 17.10 s | adopted strategy for reaching the platform (the peripheral type and the random type %) [7]: 80.31% | orientation angle for reaching the platform [7]: 58.23 ± 27.90 ° | speed for reaching the platform [7]: 19.76 ± 10.49 cm/s | swimming path length for reaching the platform [7]: 760.80 ± 277.08 cm | time for reaching the platform [7]: 41.80 ± 11.68 s | adopted strategy for reaching the platform (the peripheral type and the random type %) [8]: 77.37% | orientation angle for reaching the platform [8]: 54.77 ± 18.42 ° | speed for reaching the platform [8]: 20.07 ± 7.36 cm/s | swimming path length for reaching the platform [8]: 737.60 ± 223.46 cm | time for reaching the platform [8]: 53.40 ± 23.24 s | adopted strategy for reaching the platform (the peripheral type and the random type %) [9]: 75.48% | orientation angle for reaching the platform [9]: 52.93 ± 17.44 ° | speed for reaching the platform [9]: 20.00 ± 8.73 cm/s | swimming path length for reaching the platform [9]: 584.50 ± 181.92 cm | time for reaching the platform [9]: 40.50 ± 20.47 s | adopted strategy for reaching the platform (the peripheral type and the random type %) [10]: 70.66% | orientation angle for reaching the platform [10]: 57.32 ± 31.22 ° | speed for reaching the platform [10]: 22.17 ± 13.09 cm/s | swimming path length for reaching the platform [10]: 685.10 ± 319.17 cm | time for reaching the platform [10]: 38.10 ± 22.41 s | adopted strategy for reaching the platform (the peripheral type and the random type %) [11]: 71.34% | orientation angle for reaching the platform [11]: 51.48 ± 11.38 ° | speed for reaching the platform [11]: 20.53 ± 11.21 cm/s | swimming path length for reaching the platform [11]: 653.50 ± 321.17 cm | time for reaching the platform [11]: 36.00 ± 20.42 s | adopted strategy for reaching the platform (the peripheral type and the random type %) [12]: 68.99% | orientation angle for reaching the platform [12]: 50.22 ± 18.92 ° | speed for reaching the platform [12]: 21.48 ± 9.09 cm/s | swimming path length for reaching the platform [12]: 544.70 ± 179.35 cm | time for reaching the platform [12]: 37.00 ± 17.54 s | adopted strategy for reaching the platform (the peripheral type and the random type %) [13]: 71.53% | orientation angle for reaching the platform [13]: 54.22 ± 28.34 ° | speed for reaching the platform [13]: 21.30 ± 9.86 cm/s | swimming path length for reaching the platform [13]: 563.90 ± 154.71 cm | time for reaching the platform [13]: 36.20 ± 27.16 s | adopted strategy for reaching the platform (the peripheral type and the random type %) [14]: 69.33% | orientation angle for reaching the platform [14]: 53.62 ± 17.88 ° | speed for reaching the platform [14]: 22.73 ± 17.69 cm/s | swimming path length for reaching the platform [14]: 562.80 ± 280.10 cm | time for reaching the platform [14]: 33.50 ± 21.95 s | adopted strategy for reaching the platform (the peripheral type and the random type %) [15]: 67.59% | orientation angle for reaching the platform [15]: 51.22 ± 20.11 ° | speed for reaching the platform [15]: 21.90 ± 10.66 cm/s | swimming path length for reaching the platform [15]: 481.50 ± 203.96 cm | time for reaching the platform [15]: 30.10 ± 15.85 s | adopted strategy for reaching the platform (the peripheral type and the random type %) [16]: 68.55% | orientation angle for reaching the platform [16]: 52.11 ± 22.00 ° | speed for reaching the platform [16]: 21.55 ± 6.47 cm/s | swimming path length for reaching the platform [16]: 513.30 ± 194.29 cm | time for reaching the platform [16]: 35.90 ± 24.22 s | adopted strategy for reaching the platform (the peripheral type and the random type %) [17]: 65.72% | orientation angle for reaching the platform [17]: 50.65 ± 18.77 ° | speed for reaching the platform [17]: 20.62 ± 7.36 cm/s | swimming path length for reaching the platform [17]: 523.30 ± 182.50 cm | time for reaching the platform [17]: 38.90 ± 22.26 s | adopted strategy for reaching the platform (the peripheral type and the random type %) [18]: 60.14% | orientation angle for reaching the platform [18]: 48.78 ± 16.83 ° | speed for reaching the platform [18]: 18.52 ± 7.78 cm/s | swimming path length for reaching the platform [18]: 540.50 ± 166.77 cm | time for reaching the platform [18]: 36.10 ± 22.34 s
